From ChEMBL document CHEMBL1201862, “PubChem BioAssay data set” (2004)
Calls of active or inactive are those of the source. Cut-off read from the data, not from the text of the source, for most assays here: actives have a measured AC50 and inactives only a lower limit.

Tests used:
[1] = viability loss in A549 lung cancer cells – cell-based, cherry-picks, […], cytotoxicity control, dose response (AID 1053119); type: functional
[2] = blockers of FN fibrillogenesis by fibroblasts – AH1F cells, Alexa488-FN fluorescence, cherry-picks, dose response (AID 1035475); type: functional, cell-based
[3] = toxicity to human hepatoma HepG2 cells – cell-based, cherry-picked samples, cytotoxicity control, dose response (AID 1159577); type: functional
[4] = P. falciparum Dd2 growth inhibitors, dose response, SYBR Green, cherry-picked samples (AID 1159567); type: functional, cell-based
[5] = viability loss in HEK293 kidney cells – cell-based, cherry-picks, set 5, cytotoxicity control, dose response (AID 1053117); type: functional
[6] = viability loss in HepG2 hepatoma cells – cell-based, cherry-picks, set 5, cytotoxicity control, dose response (AID 1053118); type: functional
[7] = target: T1, Methionyl-tRNA synthetase, putative (Trypanosoma brucei brucei, UniProt Q38C91); type: functional, Trypanosoma brucei brucei strain 927/4 GUTat10.1
T1 sequence (Q38C91 whole entry): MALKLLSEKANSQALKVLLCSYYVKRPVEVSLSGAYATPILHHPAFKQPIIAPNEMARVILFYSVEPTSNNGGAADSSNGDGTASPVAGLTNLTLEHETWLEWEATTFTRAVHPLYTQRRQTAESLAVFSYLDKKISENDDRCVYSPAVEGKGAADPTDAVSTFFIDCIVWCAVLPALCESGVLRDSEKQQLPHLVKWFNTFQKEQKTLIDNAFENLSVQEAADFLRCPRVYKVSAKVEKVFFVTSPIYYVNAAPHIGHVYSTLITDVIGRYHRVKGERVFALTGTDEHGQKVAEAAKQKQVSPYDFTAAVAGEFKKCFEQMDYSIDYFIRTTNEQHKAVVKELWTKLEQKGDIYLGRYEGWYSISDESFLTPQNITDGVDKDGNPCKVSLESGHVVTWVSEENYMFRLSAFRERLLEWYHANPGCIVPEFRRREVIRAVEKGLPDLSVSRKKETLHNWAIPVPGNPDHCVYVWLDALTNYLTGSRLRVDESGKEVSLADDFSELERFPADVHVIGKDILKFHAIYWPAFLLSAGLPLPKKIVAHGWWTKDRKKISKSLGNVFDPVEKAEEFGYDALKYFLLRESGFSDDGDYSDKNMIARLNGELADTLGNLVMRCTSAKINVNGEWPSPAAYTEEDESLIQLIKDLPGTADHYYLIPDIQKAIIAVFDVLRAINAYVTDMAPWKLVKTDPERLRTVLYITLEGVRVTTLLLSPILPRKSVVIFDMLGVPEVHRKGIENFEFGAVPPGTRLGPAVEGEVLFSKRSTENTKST

[8] = target: T1, Methionyl-tRNA synthetase, putative; type: functional, Trypanosoma brucei brucei strain 927/4 GUTat10.1; remark: listed apart in the source
[9] = Counterscreen for inhibitors of Trypanosoma brucei methionyl tRNA synthetase (MetRS): Luminescence-based cell-based high throughput dose response assay to identify compounds that are cytotoxic to Jurkat human T lymphocyte cells.; type: functional
[10] = Late stage counterscreen for inhibitors of Trypanosoma brucei methionyl tRNA synthetase (MetRS): Luminescence-based cell-based high throughput dose response assay to identify compounds that are cytotoxic to Jurkat human T lymphocyte cells.; type: functional
[11] = inhibitors acting on PAX2 in cells – cell-based, plate reader, dry powder samples, selectivity assay for PAX8 inhibitor project, dose response (AID 743048); type: functional;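 note: HEK293 cells carrying a WT1 promoter luciferase reporter driven by expressed Pax2; potency is for inhibition of Pax2 driven reporter signal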
[12] = COV434 cell viability loss – plate reader, dry powder, SA7, cytotoxicity control for PAX8 inhibitor project, dose response (AID 743145); type: functional, cell-based
Paired box protein Pax-8 = Paired box protein Pax-8 (Homo sapiens, UniProt Q06710); assay: PAX8 transcriptional activity inhibition in RMG-I – RMG-I cells, luciferase, cherry-pick, dose response (AID 687027); type: functional, cell-based;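 note: luciferase reporter driven by Pax8 target thyroperoxidase promoter measured by SteadyGlo luminescence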
[13] = PAX5 cellular inhibition readout – cell-based, plate reader, dry powder samples, selectivity assay for PAX8 inhibitor project, dose response (AID 743047); type: functional;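 note: HEK293 cells carrying a Pax5 driven CD19 promoter luciferase reporter; potency of inhibitors that lower reporter luminescence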
[14] = PAX8-dependent cell viability loss – plate reader, dry powder, dose response (AID 743049); type: functional, cell-based
cells [15] = assay: cells
[16] = target: T2, Oxysterols receptor LXR-beta (Homo sapiens, UniProt P55055); type: functional, cell-based;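 note: Cell-based luminescence dose-response assay of agonist activity at LXR, run as a confirmatory counterscreen to a daf-12 agonist screen; HEK293 cells with Gal4-LXR fusion and GAL4-driven luciferase reporter; agonist potency from rising luciferase signal of a Gal4-LXR reporter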
T2 sequence (P55055 whole entry): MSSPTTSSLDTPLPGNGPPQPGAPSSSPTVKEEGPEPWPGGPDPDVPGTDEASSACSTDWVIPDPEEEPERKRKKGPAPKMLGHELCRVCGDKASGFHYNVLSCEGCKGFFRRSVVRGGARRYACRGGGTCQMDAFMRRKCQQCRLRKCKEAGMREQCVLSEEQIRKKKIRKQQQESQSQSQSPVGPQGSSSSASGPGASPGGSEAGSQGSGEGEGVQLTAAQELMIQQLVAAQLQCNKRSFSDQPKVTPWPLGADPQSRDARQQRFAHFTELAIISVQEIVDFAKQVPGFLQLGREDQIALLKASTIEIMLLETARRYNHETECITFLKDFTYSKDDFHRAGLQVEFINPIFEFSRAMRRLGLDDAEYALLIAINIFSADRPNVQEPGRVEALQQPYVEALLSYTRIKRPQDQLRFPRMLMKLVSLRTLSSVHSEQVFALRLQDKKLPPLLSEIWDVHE

cells [17] = assay: cells; remark: listed apart in the source
cells [18] = conditions: HEK293
[19] = Shn3 3'UTR reporter signal decrease – cell-based, Clone20 osteoblasts, firefly luciferase, cherry-pick, set 2, Schnurri-3 inhibitor project, dose response (AID 720490); type: functional;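 note: actives lower the luminescence signal as inhibitors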
[20] = non-specific 3'UTR reporter inhibition in Clone20-Shn3RL – cell-based, Renilla luciferase, cherry-picked, counter-screen for Shn3 inhibitor project, dose response (AID 624133); type: functional
[21] = reduction of Shn3 3'UTR-driven luciferase in osteoblasts – cell-based, Clone20 osteoblasts, firefly luciferase, cherry-picked, dose response (AID 624132); type: functional;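 note: firefly luciferase luminescence from reporter carrying the Shn3 3'UTR in osteoblasts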
[22] = EF1alpha-driven Renilla reporter with control 3'UTR suppression – Clone20-Shn3RL cells, dual-Glo, cherry-pick, set 2, counter-screen for Shn3 3'UTR targeting project, dose response (AID 720724); type: functional, cell-based; conditions: Dual-Go Shn3RL
[23] = miR-122 quantity in Huh7 after inhibitor exposure – cell-based, RT-qPCR, dry powder, orthogonal assay for miR-122 inhibitor project, dose response (AID 687041); type: functional

Paired box protein Pax-8, sequence (Q06710 whole entry): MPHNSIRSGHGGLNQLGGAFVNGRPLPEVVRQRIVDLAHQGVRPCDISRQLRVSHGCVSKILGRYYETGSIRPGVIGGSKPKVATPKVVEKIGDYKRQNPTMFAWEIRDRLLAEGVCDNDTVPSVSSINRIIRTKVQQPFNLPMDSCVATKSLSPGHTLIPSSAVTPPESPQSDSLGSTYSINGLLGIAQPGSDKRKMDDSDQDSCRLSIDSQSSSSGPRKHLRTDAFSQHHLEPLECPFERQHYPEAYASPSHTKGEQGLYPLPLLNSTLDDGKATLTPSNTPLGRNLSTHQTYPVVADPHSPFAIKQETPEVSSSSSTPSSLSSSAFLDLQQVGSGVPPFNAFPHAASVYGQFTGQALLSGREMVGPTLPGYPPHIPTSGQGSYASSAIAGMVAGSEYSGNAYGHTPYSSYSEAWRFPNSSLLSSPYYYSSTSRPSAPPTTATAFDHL

SMILES: CO[C@@H]1CN(C)C(=O)c2ccc(NC(=O)c3ccc(-c4ccccc4)cc3)cc2OC[C@@H](C)NC[C@H]1C
- AC50 [1]: 12.3 µM (active)
- AC50 [2]: 19.6 µM (active)
- AC50 [3]: 10.3 µM (active)
- AC50 [4]: 8.67 µM (active)
- AC50 [5]: 12.1 µM (active)
- AC50 [6]: 10.8 µM (active)

SMILES: O=C(NCc1nc2ccccc2[nH]1)C1=C[C@@H](c2csc3ccccc23)C[C@@H](OCCCCO)O1
- IC50 [7]: 1.91 µM (active)
- IC50 [8]: 1.36 µM (active)
- IC50 [9]: 80.2 µM (inactive)
- IC50 [10]: 64.4 µM (inactive)

SMILES: C[C@@H]1CN([C@H](C)CO)C(=O)CCCn2nncc2CO[C@H]1CN(C)Cc1ccc(Oc2ccccc2)cc1
- AC50 [11]: 47.9 µM (active)
- AC50 [12]: 0.00024 µM (active)
- AC50 (Paired box protein Pax-8): 22.1 µM (active)
- AC50 [13]: > 70 µM (inactive)
- AC50 [14]: > 70 µM (inactive)

SMILES: C#CCOc1ccc(C2C(C#N)=C(N)Oc3cc(O)ccc32)cc1 (centres undefined)
- AC50 (cells [15]): 3.61 µM (active)

SMILES: CSc1ccccc1-c1nnc(-c2ccccc2)o1
- EC50 [16]: > 67.5 µM (inactive)
- EC50 (cells [17]): > 67.5 µM (inactive)

SMILES: CC(=O)Oc1ccc(C(=O)Nc2cc(C)on2)cc1
- AC50 (cells [18]): > 52 µM (inactive)

SMILES: CN(c1ccccc1)S(=O)(=O)c1cccc(NC(=O)CSc2nncs2)c1
- AC50 [19]: 2.6 µM (active)
- AC50 [20]: 15.8 µM (active)
- AC50 [21]: 1.44 µM (active)
- AC50 [22]: 4.3 µM (active)

SMILES: S=C(Nc1ccc(Cl)cc1Cl)NC1CCCCC1
- AC50 [23]: 2.25 µM (active)
